Measured values from US5364869A, “Heterocycle-substituted benzyaminopyridine angiotensin II receptor antagonists” (Abbott Laboratories, priority 1993, dated 1994).

How the values were obtained:
angiotensin II receptor = target: T1, angiotensin II receptor (Oryctolagus cuniculus, UniProt P34976); experiment: Antagonism of contraction of rabbit aorta (angiotensin II functional assay, isolated rabbit aorta); set-up: species or system rabbit (female New Zealand White); settings: Schild analysis; for Kb: pA2 = negative logarithm of [A]2
T1 construct: Main abdominal aortas were removed and placed in Krebs-Henseleit buffer; from tissue; host or cells: abdominal aorta rings of female New Zealand White rabbits
T1 sequence (P34976 1-359): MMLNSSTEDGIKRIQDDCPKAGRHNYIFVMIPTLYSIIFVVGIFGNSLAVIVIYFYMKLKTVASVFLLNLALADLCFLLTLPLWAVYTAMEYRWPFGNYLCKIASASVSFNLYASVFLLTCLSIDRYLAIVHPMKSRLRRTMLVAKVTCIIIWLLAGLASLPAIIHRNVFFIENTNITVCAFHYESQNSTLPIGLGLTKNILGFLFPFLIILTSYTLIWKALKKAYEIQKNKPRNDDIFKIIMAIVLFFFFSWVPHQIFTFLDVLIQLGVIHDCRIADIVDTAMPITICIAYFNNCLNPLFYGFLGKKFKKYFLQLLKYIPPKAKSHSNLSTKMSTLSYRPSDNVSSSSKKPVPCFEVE
Text: ANGIOTENSIN II FUNCTIONAL ASSAY
Antagonism of Contraction of Rabbit Aorta
The protocol reported by A. T. Chiu and P. Timmermans (P. C. Wong, et al. Hypertension, 13, 489-497 (1989)) was followed with a few modifications. Female New Zealand White rabbits weighing 2-5 kg were sedated with carbon dioxide and then sacrificed. Main abdominal aortas were removed and placed in Krebs-Henseleit buffer at room temperature.
The tissues were cleaned of extraneous connective tissue, cut into 3 mm rings, and suspended within a 10 mL tissue bath. All dilutions of peptide preparations were made with 0.3% aqueous BSA. The tissues were primed with 55 mM potassium chloride. Tissues were pre-loaded with 1 g of tension. Tension was recorded on a model 7 Grass polygraph using FT03 transducers. At the end of the equilibrium period, a control cumulative concentration-contractile response curve for angiotensin II (A II: 1×10^-10 -10^-8 M) was obtained. The tissue was washed several times until the baseline was reached. Forty five minutes later, test compound (antagonist) was added and the tissue was incubated for 30 minutes. The concentration-response curve for A II was then repeated in the presence of the test compound. One dose of antagonist was tested per tissue only. For single dose shift experiments a dose of 1 mM of test compound was used, for a full pA2 experiment multiple doses were used depending upon the potency of the antagonist.
All responses to the control agonist were calculated as a percentage of the maximum response. These points in duplicate were plotted and analyzed according to standard Schild analysis (H. O. Schild, British J Pharmacology and Chemotherapy, 2, 189-206 (1947). The pA2 values calculated for the compounds of the invention are shown in Table 1. The pA2 value is the negative logarithm of the [A]2 value. [A]2 is the concentration of antagonist which necessitates doubling the agonist concentration in order to achieve the agonist effect which was measured in the absence of antagonist.
The pA2 value, therefore is a measure of the effectiveness of the compound as an antagonist.

[1] = system: hypertension and congestive heart failure; settings: background; cited from earlier work
angiotensin II = settings: background; cited from earlier work
[2] = background; cited from earlier work
[3] = after intravenous administration; due to angiotensin receptor agonist activity; cited from earlier work

Compound: CCCN(Cc1ccc(OC(C(=O)O)c2ccccc2)cc1)c1nc(C)ncc1C(=O)O (stereo not drawn) [Example 1, 4-[N-4-(1-Carboxy-1-phenylmethoxy)benzyl-N-propyl]amino-2-methylpyrimidine-5-carboxylic acid]
- Kb (angiotensin II receptor): 589 nM

Compound: CCCN(Cc1ccc2c(Br)c(-c3ccccc3-c3nn[nH]n3)sc2c1)c1ncccc1C(=O)O [Example 3]
- pA2 (angiotensin II receptor; pA2 = negative logarithm of [A]2, 30 min): 7.53

Compound: CCCN(Cc1ccc(-n2cc(Br)cc2-c2nn[nH]n2)cc1)c1ncccc1C(=O)O [Example 4H, 2-{N-Propyl-N-[(1-[3-bromo-5-(1H-tetrazol-5-yl)pyrrole-1-yl]phenyl-4-yl)methyl]amino}pyridine-3-carboxylic acid]
- Kb (angiotensin II receptor): 0.132 nM

Compound: C[C@H](CS)C(=O)N1CCC[C@H]1C(=O)O [captopril]
- clinical efficacy in treating hypertension and congestive heart failure (in words) [1]: have clinical efficacy in treating hypertension and congestive heart failure

Compound: CCOC(=O)[C@H](CCc1ccccc1)N[C@@H](C)C(=O)N1CCC[C@H]1C(=O)O [enalapril]
- clinical efficacy in treating hypertension and congestive heart failure (in words) [1]: have clinical efficacy in treating hypertension and congestive heart failure

Compound: COc1ccc(C[C@H](NC(=O)CC(C)(C)N)C(=O)N[C@@H](Cc2cnc[nH]2)C(=O)N[C@@H](CC2CCCCC2)[C@@H](O)[C@@H](O)CC(C)C)cc1 [enalkiren]
- clinical efficacy in treating hypertension and congestive heart failure (in words) [1]: have clinical efficacy in treating hypertension and congestive heart failure

Compound: CNCC(=O)N[C@@H](CCCN=C(N)N)C(=O)N[C@H](C(=O)N[C@@H](Cc1ccc(O)cc1)C(=O)N[C@H](C(=O)N[C@@H](Cc1cnc[nH]1)C(=O)N1CCC[C@H]1C(=O)N[C@@H](C)C(=O)O)C(C)C)C(C)C [saralasin, [Sar^1, Ala^8] angiotensin II]
- antagonist of the actions of angiotensin II (in words) (angiotensin II): potent antagonist of the actions of angiotensin II
- oral bioavailability (in words) [2]: very poor oral bioavailability
- initial blood pressure change (in words) [3]: initial increase in blood pressure after intravenous administration
